Patent US10208056B2, “Condensed tricyclic compounds as protein kinase inhibitors” (FUNDACIÓN DEL SECTOR PÚBLICO ESTATAL CENTRO NACIONAL DE …, priority 2015, dated 2019)

Tested on: SW620 human colon cancer xenografts
Assay: In vivo target modulation studies (P-STAT1 S727 in tumors)
Design: species or system mice
Details: single oral dose 5 mg/kg; tumors sampled 1, 4, 8 and 24 h
Protocol: The in vivo potency of the compounds was measured determining target modulation in human colon xenografts. Eight weeks old female athymic nude mice (Harlan Sprague Dawley Inc) are subcutaneously grafted with 10*10^6 SW620 human colon cancer cells. When the tumors reach a size of 200-400 mm^3 the mice are dosed orally with 5 mg/kg of Example 43 or vehicle. Tumors are excised 1, 4, 8 and 24 h after administration (n=3 mice per time point) and are processed for western blot and for HPLC/MS/MS in order to determine the concentration for Example 43 in the tumor. […] The supernatants are removed and protein concentration is determined by Bradford method (Bio-Rad Protein Assay). […] 30-60 μg of total proteins extracts are analyzed by western blot for STAT1P/STAT1 modulation as has been described in the cellular CDK8 inhibition assay. […] Specific solid phase extraction methods as well as LC-MS/MS analysis and quantification methods were developed, reaching LLOQs of 1 ng/ml. […]

CCn1c(C(N)=O)cc2c1-c1ccncc1OC2(C)C [Example 43]
target modulation in vivo, P-STAT1 (S727): Clear target modulation is observed at 1 and 4 h
